Our source for the IC50 values is US20230044787A1, “TRICYCLE DIHYDROIMIDAZOPYRIMIDONE DERIVATIVE, PREPARATION METHOD THEREOF, PHARMACEUTICAL COMPOSITION AND USE THEREOF” (priority 2019, published 2023).

Broadly, the IC50 is the concentration that gives 50% inhibition.

The target of the experiment is T1, Lp-PLA2 (Homo sapiens, UniProt Q13093).
T1 construct: aliquoted and thawed 40 μL of pooled human plasma was previously added; from tissue; host or cells: pooled human plasma
T1 sequence (Q13093 22-441): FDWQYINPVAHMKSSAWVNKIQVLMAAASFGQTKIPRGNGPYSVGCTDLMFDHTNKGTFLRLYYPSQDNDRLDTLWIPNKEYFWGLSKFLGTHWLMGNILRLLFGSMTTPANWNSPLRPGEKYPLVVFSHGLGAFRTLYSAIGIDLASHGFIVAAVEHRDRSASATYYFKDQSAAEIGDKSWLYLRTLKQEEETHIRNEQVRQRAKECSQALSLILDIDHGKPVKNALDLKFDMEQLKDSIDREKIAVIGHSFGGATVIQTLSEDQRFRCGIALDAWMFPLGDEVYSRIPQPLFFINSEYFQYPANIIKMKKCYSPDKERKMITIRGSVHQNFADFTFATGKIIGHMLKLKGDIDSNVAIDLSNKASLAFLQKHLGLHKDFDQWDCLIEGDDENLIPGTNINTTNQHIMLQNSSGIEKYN
In words: Lipoprotein-associated phospholipase A2 (Lp-PLA2) human plasma assay (Thio-PAF assay). The class given is biochemical. The note with it: Lp-PLA2 human plasma assay (Thio-PAF), pooled human plasma, 30-min pre-incubation at room temperature.
On to `O=c1nc(OCc2ccc(F)c(F)c2)cc2n1C[C@]13CO[C@H](CN21)C3` [Example 25, (3S,11aR)-7-((3,4-trifluorobenzyl)oxy)-3,4-dihydro-1H,9H,11H-3,11a-methanopyrimido[6′,1′:2,3] imidazo[5,1-c][1,4]oxazin-9-one], for which the half-inhibitory concentration (IC50) was found to be 10.4 nM.

With `O=c1nc(OCc2cc(F)c(Oc3ccc(F)cc3)c(F)c2)cc2n1C[C@]13CO[C@H](CN21)C3` [Example 147], the IC50 was 6.5 nM. `O=c1nc(OCc2ccc(Oc3ccc(Cl)c(C(F)(F)F)c3)c(F)c2)cc2n1CC13CC(CN21)C3` [Example 125, 3-((3-fluoro-4-(4-chloro-3-(trifluoromethyl)phenoxy)benzyl)oxy)-7,8-dihydro-1H,6H,9H-7,8a-methanopyrrolo[1′,2′:3,4] imidazo[1,2-c]pyrimidin-1-one]: the concentration for half-maximal inhibition (IC50) was determined as 3 nM. Consider `Cc1cc(Oc2c(F)cc(COc3cc4n(c(=O)n3)CC3(C)COCCN43)cc2F)ccn1` (stereo not shown) [Example 79, 7-((3,5-difluoro-4-((2-methyl-pyridin-4-yl)oxy)benzyl)oxy)-11a-methyl-3,4,11,11a-tetrahydro-1H,9H-pyrimido[6′,1′:2,3]imidazo [5,1-c][1,4]oxazin-9-one], for which the 50% inhibitory concentration (IC50) is 6.1 nM. As for `CC12CCCCN1c1cc(OCc3ccc(F)c(F)c3)nc(=O)n1C2` (stereo not shown) [Example 74, 3-((3,4-difluorobenzyl)oxy)-9a-methyl-6,7,8,9,9a,10-hexahydro-1H-pyrido [1′,2′:3,4]imidazo[1,2-c]pyrimidin-1-one], the IC50 is 22.3 nM. The figure for `Cn1cc(Oc2c(F)cc(COc3cc4n(c(=O)n3)C[C@]35CO[C@H](CN43)C5)cc2F)cn1` [Example 11, (3S,11aR)-7-((3,5-difluoro-4-((1-methyl-1H-pyrazol-4-yl)oxy)benzyl)oxy)-3,4-dihydro-1H,9H,11H-3,11a-methanopyrimido[6′,1′:2,3] imidazo[5,1-c][1,4]oxazin-9-one] is 10.8 nM; for `CC12CCCN1c1cc(OCc3cc(F)c(Oc4ccnc(OC(F)(F)F)c4)c(F)c3)nc(=O)n1C2` (stereo not shown) [Example 55, 3-((3,5-difluoro-4-((2-(trifluoromethoxy)pyridin-4-yl)oxy)benzyl)oxy)-8a-methyl-7,8,8a,9-tetrahydro-1H,6H-pyrrolo[1′,2′:3,4]imidazo [1,2-c]pyrimidin-1-one] it is 6.5 nM. In the case of `COc1c(CCc2ccc(Oc3ccnc(C(F)(F)F)c3)cc2)nc(=O)n2c1N1C[C@@H]3C[C@]1(CO3)C2` [Example 170, (3S,11aR)-6-Methoxy-7-(4-((2-(trifluoromethyl)pyridin-4-yl)oxy)phenethyl)-3,4-dihydro-1H,9H,11H-3,11a-methanopyrimido[6′,1′:2,3]imidazo[5,1-c] [1,4]oxazin-9-one], the IC50 was 178 nM.

As to `COc1c(OCc2ccc(F)c(F)c2)nc(=O)n2c1N1C[C@@H]3C[C@]1(CO3)C2` [Example 115, (3S,11aR)-7-((3,4-difluorobenzyl)oxy)-6-methoxy-3,4-dihydro-1H,9H,11H-3,11a-methanopyrimido[6′,1′:2,3] imidazo[5,1-c][1,4]oxazin-9-one], the IC50 worked out at 5.2 nM. As to `O=C(c1ccccc1)N1C[C@]23C[C@H]1CN2c1cc(OCc2ccc(Oc4ccnc(C(F)(F)F)c4)c(F)c2)nc(=O)n1C3` [Example 174], the IC50 worked out at 5 nM.

In the case of `Cc1cc(Oc2c(F)cc(COc3cc4n(c(=O)n3)C[C@]35CO[C@H](CN43)C5)cc2F)ccn1` [Example 10, (3S,11aR)-7-((3,5-difluoro-4-((2-methyl-pyridin-4-yl)oxy)benzyl)oxy)-3,4-dihydro-1H,9H,11H-3,11a-methanopyrimido[6′,1′:2,3] imidazo[5,1-c][1,4]oxazin-9-one], the IC50 amounted to 6.7 nM.

For the compound `O=c1nc(OCc2cc(F)c(Oc3cccc(OC(F)(F)F)c3)c(F)c2)cc2n1C[C@]13CO[C@H](CN21)C3` [Example 145, (3S,11aR)-7-((3,5-difluoro-4-(3-(trifluoromethoxy)phenoxy)benzyl)oxy)-3,4-dihydro-1H,9H,11H-3,11a-methanopyrimido[6′,1′:2,3] imidazo[5,1-c][1,4]oxazin-9-one], the IC50 was 4.3 nM. As to `NC12CN3c4cc(OCc5ccc(Oc6ccnc(C(F)(F)F)c6)c(F)c5)nc(=O)n4CC3(C1)C2` [Example 202, 7-Amino-3-((3-fluoro-4-((2-(trifluoromethyl)pyridin-4-yl)oxy)benzyl)oxy)-7,8-dihydro-1H,6H,9H-7,8a-methanopyrrolo[1′,2′:3,4]imidazo[1,2-c]pyrimidin-1-one], the IC50 was 1.9 nM. Take `N#Cc1cc(Oc2ccc(COc3nc(=O)n4c(c3F)N3C[C@@H]5C[C@]3(CO5)C4)cc2F)cc(C(F)(F)F)c1` [Example 90]: the IC50 was 4.8 nM. In the case of `O=c1nc(OCc2cc(F)c(Oc3ccnc(C(F)(F)F)c3)c(F)c2)cc2n1CC13CC(CN21)C3` [Example 36, 3-((3,5-difluoro-4-((2-(trifluoromethyl)pyridin-4-yl)oxy)benzyl)oxy)-7,8-dihydro-1H,6H,9H-7,8a-methanopyrrolo[1′,2′:3,4] imidazo[1,2-c]pyrimidin-1-one], the IC50 came out at 9.6 nM. As for `O=c1nc(OCc2ccc(Oc3ccc(Cl)c(C(F)(F)F)c3)c(F)c2)cc2n1C[C@]13CO[C@H](CN21)C3` [Example 14, (3S,11aR)-7-((4-(4-chloro-3-(trifluoromethyl)phenoxy)-3-fluorobenzyl)oxy)-3,4-dihydro-1H,9H,11H-3,11a-methanopyrimido[6′,1′:2,3] imidazo[5,1-c][1,4]oxazin-9-one], the IC50 stood at 4.6 nM. As for `Cn1cc(Oc2c(F)cc(COc3cc4n(c(=O)n3)CC3(C)CCCN43)cc2F)cn1` (stereo not shown) [Example 57, 3-((3,5-difluoro-4-((1-methyl-1H-pyrazol-4-yl)oxy)benzyl)oxy)-8a-methyl-7,8,8a,9-tetrahydro-1H,6Hpyrrolo[1′,2′:3,4] imidazo[1,2-c]pyrimidin-1-one], the IC50 came to 62.2 nM. As for `O=c1nc(OCc2cc(F)c(Oc3cncc(C(F)(F)F)c3)c(F)c2)cc2n1C[C@]13CO[C@H](CN21)C3` [Example 8], the half-inhibitory concentration (IC50) turned out to be 4.9 nM. The figure for `COc1c(OCc2ccc(Oc3ccnc(C(F)F)c3)c(F)c2)nc(=O)n2c1N1CC3CC1(C3)C2` [Example 140, 3-((4-((2-(difluoromethyl)pyridin-4-yl)oxy)-3-fluorobenzyl)oxy)-4-methoxy-7,8-dihydro-1H,6H,9H-7,8a-methanopyrrolo[1′,2′:3,4] imidazo[1,2-c]pyrimidin-1-one] is 3.9 nM.
